According to patent US11999746B2, “Compounds” (GlaxoSmithKline Intellectual Property Development Limited, priority 2014, dated 2024):

What was measured:
[1] = molecular target: T1, recombinant human Lp-PLA2 (Homo sapiens, UniProt Q13093); assay: (1a) PED6 assay, recombinant human Lp-PLA2 (rhLp-PLA2); type: biochemical; details: Examples 1-167 and 413-430 were tested here, one experiment or average of multiple experiments, read-out: rhLp-PLA2 (pIC50) (converted)
T1 sequence (Q13093 22-441): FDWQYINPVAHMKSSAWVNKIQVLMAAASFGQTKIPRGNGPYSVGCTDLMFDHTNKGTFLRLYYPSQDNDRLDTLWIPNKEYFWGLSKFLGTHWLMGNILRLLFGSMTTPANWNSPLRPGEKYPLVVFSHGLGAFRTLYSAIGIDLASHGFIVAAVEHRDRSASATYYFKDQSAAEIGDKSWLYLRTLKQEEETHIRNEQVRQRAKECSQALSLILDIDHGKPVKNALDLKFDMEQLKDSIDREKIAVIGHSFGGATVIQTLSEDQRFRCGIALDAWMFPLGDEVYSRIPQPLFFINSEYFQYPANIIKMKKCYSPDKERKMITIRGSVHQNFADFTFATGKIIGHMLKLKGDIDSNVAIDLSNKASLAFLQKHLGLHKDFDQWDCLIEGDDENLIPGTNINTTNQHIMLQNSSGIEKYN
Method in brief: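 PED6 (2 μM final after 1:1 addition of 4 μM stock) cleavage by rhLp-PLA2 (4 nM working solution) in 50 mM HEPES pH 7.4, 150 mM NaCl, 1 mM CHAPS; compounds preincubated with enzyme 30 minutes, reaction 20 min at room temperature. Fluorescence at ex 480/em 540; pIC50 from curve fit.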

Lp-PLA2 in human plasma = molecular target: T2, Lp-PLA2 in human plasma (Homo sapiens, UniProt Q13093); assay: (3a) Lp-PLA2 human plasma Thio-PAF assay; type: biochemical; details: (3a) Thio-PAF assay, pooled human plasma; Examples 1-265 and 413-430 were tested here; read-out: pIC50 in the Lp-PLA2 human plasma assay (converted)
T2 construct: from tissue; host or cells: pooled human plasma
T2 sequence (Q13093 22-441): T1 sequence (Q13093 22-441)
Method in brief: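 Endogenous Lp-PLA2 activity in frozen pooled human plasma measured as thiol release from 2-thio-PAF, detected by CPM fluorescence (ex 380/em 485). Compound preincubation 30 min; 2-min reaction in HEPES pH 7.4 buffer with NEM, stopped with 5% TFA, read 40 min later at room temperature; values as pIC50.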

Row | SMILES | IC50 [1] [µM] | IC50 (Lp-PLA2 in human plasma) [µM]
1 | O=c1nc(OCc2cccc(F)c2F)cc2n1C[C@@H]1COCCN21 [Example E131, (R)-7-((2,3-difluorobenzyl)oxy)-3,4,11,11a-tetrahydropyrimido[6′,1′:2,3]imidazo[5,1-c][1,4] oxazin-9(1H)-one] | ≤ 0.1 | ≤ 0.1
2 | O=c1nc(OCc2cccc(F)c2)cc2n1C[C@@H]1COCCN21 [Example E132, (R)-7-((3-fluorobenzyl)oxy)-3,4,11,11a-tetrahydropyrimido[6′,1′:2,3]imidazo[5,1-c][1,4] oxazin-9(1H)-one] | ≤ 0.1 | ≤ 10
3 | O=c1nc(OCc2cc(F)cc(F)c2)cc2n1C[C@@H]1COCCN21 [Example E133, (R)-7-((3,5-difluorobenzyl)oxy)-3,4,11,11a-tetrahydropyrimido[6′,1′:2,3]imidazo[5,1-c][1,4] oxazin-9(1H)-one] | ≤ 0.1 | ≤ 10
4 | O=c1nc(OCc2cc(F)c(Oc3ccnc(C(F)(F)F)c3)c(F)c2)cc2n1C[C@@H]1CCOCN21 [Example E134, (S)-3-((3,5-difluoro-4-((2-(trifluoromethyl)pyridin-4-yl)oxy)benzyl)oxy)-8,9,9a,10-tetrahydropyrimido[6′,1′:2,3]imidazo[1,5-c][1,3]oxazin-1(6H)-one] | ≤ 0.001 | ≤ 0.1
5 | O=c1nc(OCc2cc(F)c(Oc3ccnc(C(F)(F)F)c3)c(F)c2)cc2n1C[C@H]1CCOCN21 [Example E135, (R)-3-((3,5-difluoro-4-((2-(trifluoromethyl)pyridin-4-yl)oxy)benzyl)oxy)-8,9,9a,10-tetrahydropyrimido[6′,1′:2,3]imidazo[1,5-c][1,3]oxazin-1(6H)-one] | ≤ 0.001 | ≤ 0.1
6 | Cn1cc(Oc2c(F)cc(COc3cc4n(c(=O)n3)C[C@@H]3CCOCN43)cc2F)cn1 [Example E136, (S)-3-((3,5-difluoro-4-((1-methyl-1H-pyrazol-4-yl)oxy)benzyl)oxy)-8,9,9a,10-tetrahydropyrimdo[6′,1′:2,3]imidazo[1,5-c][1,3]oxazin-1(6H)-one] | ≤ 0.1 | ≤ 10
7 | Cn1cc(Oc2c(F)cc(COc3cc4n(c(=O)n3)C[C@H]3CCOCN43)cc2F)cn1 [Example E137, (R)-3-((3,5-difluoro-4-((1-methyl-1H-pyrazol-4-yl)oxy)benzyl)oxy)-8,9,9a,10-tetrahydropyrimido[6′,1′:2,3]imidazo[1,5-c][1,3]oxazin-1(6H)-one] | ≤ 0.1 | ≤ 10
8 | O=c1nc(OCc2cccc(F)c2)cc2n1C[C@@H]1CCOCN21 [Example E138, (S)-3-((3-fluorobenzyl)oxy)-8,9,9a,10-tetrahydropyrimido[6′,1′:2,3]imidazo[1,5-c][1,3] oxazin-1(6H)-one] | ≤ 0.1 | ≤ 10
9 | O=c1nc(OCc2cc(F)c(F)c(F)c2)cc2n1C[C@@H]1CCOCN21 [Example E139, (S)-3-((3,4,5-trifluorobenzyl)oxy)-8,9,9a,10-tetrahydropyrimido[6′,1′:2,3]imidazo[1,5-c][1,3] oxazin-1(6H)-one] | ≤ 0.1 | ≤ 0.1
10 | O=c1nc(OCc2cc(F)c(OC3(CCF)CC3)c(F)c2)cc2n1C[C@@H]1CCOCN21 [Example E140, (S)-3-((3,5-difluoro-4-(1-(2-fluoroethyl)cyclopropoxy)benzyl)oxy)-8,9,9a,10-tetrahydropyrimido[6′,1′:2,3]imidazo[1,5-c][1,3]oxazin-1(6H)-one] | ≤ 0.1 | ≤ 10
11 | O=c1nc(OCc2cc(F)c(Oc3ccnc(C(F)(F)F)c3)c(F)c2)cc2n1C[C@H]1COCN21 [Example E141, (S)-6-((3,5-difluoro-4-((2-(trifluoromethyl)pyridin-4-yl)oxy)benzyl)oxy)-10,10a-dihydro-1H-oxazolo[3′,4′:3,4]imidazo[1,2-c]pyrimidin-8(3H)-one] | ≤ 0.001 | ≤ 0.1
12 | O=c1nc(OCc2cc(F)c(Oc3ccnc(C(F)(F)F)c3)c(F)c2)cc2n1C[C@@H]1COCN21 [Example E142, (R)-6-((3,5-difluoro-4-((2-(trifluoromethyl)pyridin-4-yl)oxy)benzyl)oxy)-10,10a-dihydro-1H-oxazolo[3′,4′:3,4]imidazo[1,2-c]pyrimidin-8(3H)-one] | ≤ 0.001 | ≤ 0.1
13 | Cn1cc(Oc2c(F)cc(COc3cc4n(c(=O)n3)C[C@H]3COCN43)cc2F)cn1 [Example E143, (S)-6-((3,5-difluoro-4-((1-methyl-1H-pyrazol-4-yl)oxy)benzyl)oxy)-10,10a-dihydro-1H-oxazolo[3′,4′:3,4]imidazo[1,2-c]pyrimidin-8(3H)-one] | ≤ 0.1 | ≤ 10
14 | Cn1cc(Oc2c(F)cc(COc3cc4n(c(=O)n3)C[C@@H]3COCN43)cc2F)cn1 [Example E144, (R)-6-((3,5-difluoro-4-((1-methyl-1H-pyrazol-4-yl)oxy)benzyl)oxy)-10,10a-dihydro-1H-oxazolo[3′,4′:3,4]imidazo[1,2-c]pyrimidin-8(3H)-one] | ≤ 0.1 | ≤ 10
15 | O=c1nc(OCc2ccc(Cl)c(F)c2)cc2n1C[C@H]1COCN21 [Example E145, (S)-6-((4-chloro-3-fluorobenzyl)oxy)-10,10a-dihydro-1H-oxazolo[3′,4′:3,4]imidazo[1,2-c] pyrimidin-8(3H)-one] | ≤ 0.1 | ≤ 10
16 | O=c1nc(OCc2cc(F)c(F)c(F)c2)cc2n1C[C@H]1COCN21 [Example E146, (S)-6-((3,4,5-trifluorobenzyl)oxy)-10,10a-dihydro-1H-oxazolo[3′,4′:3,4]imidazo[1,2-c] pyrimidin-8(3H)-one] | ≤ 0.1 | ≤ 0.1
17 | O=c1nc(OCc2cc(F)cc(F)c2)cc2n1C[C@H]1COCN21 [Example E147, (S)-6-((3,5-difluorobenzyl)oxy)-10,10a-dihydro-1H-oxazolo[3′,4′:3,4]imidazo[1,2-c] pyrimidin-8(3H)-one] | ≤ 0.1 | ≤ 10
18 | O=c1nc(OCc2cccc(F)c2)cc2n1C[C@H]1COCN21 [Example E148, (S)-6-((3-fluorobenzyl)oxy)-10,10a-dihydro-1H-oxazolo[3′,4′:3,4]imidazo[1,2-c]pyrimidin-8(3H)-one] | ≤ 0.1 | ≤ 10
19 | Cc1ccc(Oc2c(F)cc(COc3cc4n(c(=O)n3)C[C@H]3COCN43)cc2F)cn1 [Example E149, (S)-6-((3,5-difluoro-4-((6-methylpyridin-3-yl)oxy)benzyl)oxy)-10,10a-dihydro-1H-oxazolo[3′,4′:3,4]imidazo[1,2-c]pyrimidin-8(3H)-one] | ≤ 0.001 | ≤ 0.1
20 | CCCn1cc(Oc2c(F)cc(COc3cc4n(c(=O)n3)C[C@H]3COCN43)cc2F)cn1 [Example E150, (S)-6-((3,5-difluoro-4-((1-propyl-1H-pyrazol-4-yl)oxy)benzyl)oxy)-10,10a-dihydro-1H-oxazolo[3′,4′:3,4]imidazo[1,2-c]pyrimidin-8(3H)-one] | ≤ 0.1 | ≤ 0.1
21 | O=c1nc(OCc2cc(F)c(Oc3cnn(C(F)(F)F)c3)c(F)c2)cc2n1C[C@H]1COCN21 [Example E151, (S)-6-((3,5-difluoro-4-((1-(trifluoromethyl)-1H-pyrazol-4-yl)oxy)benzyl)oxy)-10,10a-dihydro-1H-oxazolo[3′,4′:3,4]imidazo[1,2-c]pyrimidin-8(3H)-one] | ≤ 0.001 | ≤ 0.1
22 | Cc1ncc(Oc2c(F)cc(COc3cc4n(c(=O)n3)C[C@H]3COCN43)cc2F)cn1 [Example E152, (S)-6-((3,5-difluoro-4-((2-methylpyrimidin-5-yl)oxy)benzyl)oxy)-10,10a-dihydro-1H-oxazolo[3′,4′:3,4]imidazo[1,2-c]pyrimidin-8(3H)-one] | ≤ 0.1 | ≤ 0.1
23 | O=c1nc(OCc2cc(F)c(F)c(F)c2)cc2n1C[C@@H]1COCN21 [Example E153, (R)-6-((3,4,5-trifluorobenzyl)oxy)-10,10a-dihydro-1H-oxazolo[3′,4′:3,4]imidazo[1,2-c] pyrimidin-8(3H)-one] | ≤ 0.1 | ≤ 10
24 | O=c1nc(OCc2cc(F)c(Oc3cnn(C(F)(F)F)c3)c(F)c2)cc2n1C[C@@H]1COCN21 [Example E154, (R)-6-((3,5-difluoro-4-((1-(trifluoromethyl)-1H-pyrazol-4-yl)oxy)benzyl)oxy)-10,10a-dihydro-1H-oxazolo[3′,4′:3,4]imidazo[1,2-c]pyrimidin-8(3H)-one] | ≤ 0.001 | ≤ 0.1
25 | Cc1cc(Oc2c(F)cc(COc3cc4n(c(=O)n3)C[C@@H]3COCN43)cc2F)ccn1 [Example E155, (R)-6-((3,5-difluoro-4-((2-methylpyridin-4-yl)oxy)benzyl)oxy)-10,10a-dihydro-1H-oxazolo[3′,4′:3,4]imidazo[1,2-c]pyrimidin-8(3H)-one] | ≤ 0.1 | ≤ 10
